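These data come from cells grown in 96-well plates and exposed to compound for 48 hours at five concentrations. TGI marks complete inhibition of growth.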

Common to all, as to experiment: NCI anticancer screen, dose series, 48 h
Test [1] relates to MDA-N.
Test [2] concerns PC-3 prostate.
In test [3] the test system is MDA-MB-231 breast.
For test [4], the system named is CCRF-CEM leukemia.
In test [5] the test system is K-562 leukemia.
Test [6] has as its system CAKI-1 renal.
Test [7] relates to HS 578T breast.
For test [8], the system named is SF-295 CNS.
The subject of test [9] is UO-31 renal.
The test system of test [10] is RPMI-8226 leukemia.
Test [11] concerns SK-OV-3 ovarian.
Test [12] concerns ACHN renal.
The test system of test [13] is T-47D breast.
Test [14] concerns HOP-62 NSCLC.
Test [15] relates to IGROV1 ovarian.
Test [16] has as its system SK-MEL-5 melanoma.
For test [17], the system named is SR leukemia.
The subject of test [18] is NCI-H522 lung.
Test [19] concerns SF-539 CNS.
Test [20] deals with HOP-92 NSCLC.

As to `CCOC(=O)c1nnsc1NC(=O)Nc1ccc(Cc2ccc(NC(=O)Nc3snnc3C(=O)OCC)cc2)cc1`, the TGI in [1] is above 100 µM; in test [2], above 100 µM; in [3] it was 95.6 µM; in [4], above 100 µM; in test [5], above 100 µM; in [6], above 100 µM. The TGI in [7] was above 100 µM; in test [8] it was above 100 µM; in test [9] it was above 100 µM; in test [10], above 100 µM; in [11], 54.8 µM; in test [12], above 100 µM. Besides, the TGI is above 100 µM in [13], above 100 µM in test [14], above 100 µM in test [15] and 93 µM in test [16].

Take `O=C(O)Cc1c(-c2ccc([N+](=O)[O-])cc2)c(=O)oc2cc(O)ccc12`: the TGI in test [1] is above 100 µM; in test [17], above 100 µM; in test [2], 94.5 µM; in test [3], above 100 µM; in test [18], 91.3 µM; in test [4], 88.8 µM. In addition, the TGI is above 100 µM in test [5]; 82 µM in [19]; 71.9 µM in [7]; 49.9 µM in test [8]; 83.6 µM in test [9]; 61.7 µM in test [10]. Besides, the TGI was 90 µM in test [11], 91.8 µM in test [12], above 100 µM in test [15] and 33.3 µM in test [16].

Regarding `N#C[C@@H](c1nc2ccccc2s1)c1ncccc1[N+](=O)[O-]`, the TGI in test [1] is above 31.6 µM; in test [2], 18.1 µM; in test [3], 17.4 µM; in test [18] it was 12 µM; in test [20], 6.85 µM; in [6] it was above 100 µM. Moreover, the TGI was 27.6 µM in [7]; 40.7 µM in test [8]; 25.6 µM in [9]; above 61.1 µM in [11]; above 31.6 µM in test [12]; 25 µM in test [13]. Also, the TGI in test [14] is above 57.6 µM; in test [16], 37.3 µM.

For the compound `NC(=O)Nc1ccc(S(=O)(=O)Nc2ccc(S(N)(=O)=O)cc2)cc1`, the TGI in test [1], in [2], in test [3], in test [18], in [4] and in test [20] was above 100 µM each time. The TGI in test [5], in test [6], in test [8], in test [9], in test [10] and in [12] was above 100 µM in each case. In addition, the TGI in [13], in test [14], in test [15] and in test [16] was above 100 µM each time.

Take `N#CC(C#N)=C1c2ccccc2C(=NN)c2ccccc21`: the TGI in [1], in test [17], in test [2], in test [3], in test [18] and in [4] was above 100 µM each time. The TGI in [20] was above 100 µM; in [5], above 100 µM; in test [6], above 100 µM; in test [19], above 100 µM; in [7], above 91.5 µM; in [8], above 100 µM. Also, the TGI is above 100 µM in test [9]; above 100 µM in test [10]; above 100 µM in test [11]; above 63.9 µM in test [12]; above 100 µM in test [14]; above 100 µM in test [15]. This compound also showed a TGI in test [16] above 100 µM.

For `O=NN1C(c2ccccc2)CC(=NO)CC1c1ccccc1` (stereo not drawn), the TGI in test [1], in test [2], in [3], in test [18], in [20] and in test [5] was above 100 µM in each case. The TGI in test [6], in test [19], in test [7], in test [8], in test [9] and in test [10] was above 100 µM throughout. Besides, the TGI in [11], in [12], in test [13], in test [14], in test [15] and in test [16] was above 100 µM each time.

Turning to `O=C1/C(=c2\s/c(=C\c3ccccc3)c(=O)n2-c2ccccc2)SC(=S)N1c1ccccc1`, the TGI is above 100 µM in test [1]; above 100 µM in [17]; above 100 µM in [2]; 57.1 µM in [3]; above 100 µM in test [4]; above 100 µM in test [20]. In addition, the TGI in [5] is above 100 µM; in test [6] it was above 100 µM; in [19], 55.6 µM; in test [7] it was above 100 µM; in test [8], above 100 µM; in test [10], above 100 µM. Besides, the TGI is 52.1 µM in test [11], 76.2 µM in test [12], 87.2 µM in test [15] and above 100 µM in test [16].

With `Cc1cc2c(cc1Cl)SC(NNC(=O)c1ccco1)=NS2(=O)=O`, the TGI in [1], in [2], in test [3], in test [18], in test [4] and in test [5] was above 10 µM in each case. Moreover, the TGI in [6], in test [19], in [7], in [8], in [9] and in test [10] was above 10 µM in each case. Besides, the TGI in test [11], in [12], in test [13], in test [14], in test [15] and in test [16] was above 10 µM in each case.

(Values after PubChem BioAssay (NCI).)
